Consider 14 compounds from patent US12692253B2, “Antimicrobial compounds and methods” (Curza Global, LLC, priority 2019, dated 2026).

Assay [1] relates to E. coli S30 extract (bacterial protein synthesis). Put plainly: E. coli S30 extract coupled transcription-translation luciferase assay (inhibition of bacterial protein synthesis). The note with it: % inhibition @ 1 μM, read-out: S30 IC50 (μM/% inhib.). The assay is classed as biochemical. An outline of the steps:
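Luciferase luminescence quantified inhibition of protein synthesis relative to water controls, with no-DNA reactions giving background. Compounds in 2-fold serial dilution (8 levels) were incubated 1 hour at 37 °C with E. coli S30 extract, amino acids and pBESTluc plasmid, then chilled to stop.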

For assay [2], the target named is Rabbit Reticulocyte Lysate (eukaryotic protein synthesis). Put plainly: Rabbit reticulocyte lysate luciferase assay (inhibition of eukaryotic protein synthesis). The class given is biochemical. The settings on record: % inhibition @ 1 μM, read-out: Rabbit reticulocyte IC50 (μM/% inhib.). An outline of the steps:
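Percent inhibition calculated against water-only controls from luminescence; background set by lysate lacking RNA. Compounds, 8-point 2-fold titration, incubated 90 minutes at 30° C with nuclease-treated rabbit reticulocyte lysate programmed with luciferase control RNA plus complete amino acids.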

In a further assay the test system is E. faecalis (Ef). Put plainly: Broth microdilution minimum inhibitory concentration (MIC), CLSI. The assay is classed as cell-based. The settings on record: growth medium with sodium bicarbonate; for MIC: Enterococcus faecalis, read-out: Ef + bicarb MIC. An outline of the steps: (§1)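 Bacteria grown at 35±2 °C to 0.5 McFarland turbidity were added at 5×10^4 CFU/well to triplicate two-fold compound series (8 dilutions). Media were cation-adjusted Mueller-Hinton broth alone or with sodium bicarbonate (6.25 or 25 mM final) or heat-inactivated human serum (0–50%), per modified CLSI method.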
For orientation: Dilution methods test growth across graded concentrations, often in twofold steps.

The test system of another assay is P. aeruginosa (Pa). The description is as above. The class given is cell-based. The settings on record: growth medium with sodium bicarbonate; for MIC: Pseudomonas aeruginosa, read-out: Pa MIC + bicarb. In a few lines: as §1
The test system of a further assay is S. aureus (Sa). The assay is described as above. The assay is classed as cell-based. The note with it: growth medium with sodium bicarbonate; for MIC: Staphylococcus aureus, read-out: Sa + bicarb MIC. An outline of the steps: as §1
For the next assay, the system named is A. baumannn (Ab). The assay is described as above. The settings on record: A. baumannn, growth medium with sodium bicarbonate; for MIC: read-out: Ab + bicarb MIC. The class given is cell-based. In a few lines: as §1
For another assay, the system named is E. coli (Ec). The assay is described as above. The assay is classed as cell-based. The settings on record: growth medium with sodium bicarbonate; for MIC: Escherichia coli, read-out: E. coli + bicarb MIC. An outline of the steps: as §1

With `CC(Cc1ccc(-n2ccc(NC(=O)N3CCN(C(=O)C(C)(C)N)CC3)nc2=O)cc1)N1CC2CCC(N)CC2C1` (centres unmarked) [Compound 242], the IC50 is 0.5 to 1 µM in assay [1] and no less than 1 µM in assay [2]. In the assay with E. faecalis (Ef), the “Ef + bicarb MIC” value is listed as “+ (An MIC (μg/mL) value that is 32 μg/mL or greater)”. For the same compound, the “Pa MIC + bicarb” value in the assay with P. aeruginosa (Pa) is listed as “+ (An MIC (μg/mL) value that is 32 μg/mL or greater)”. In the assay with S. aureus (Sa), the “Sa + bicarb MIC” value is “++ (An MIC value (μg/mL) that is 8 μg/mL or greater and less than 32 μg/mL)”. In addition, the “Ab + bicarb MIC” value with A. baumannn (Ab) was “+ (An MIC (μg/mL) value that is 32 μg/mL or greater)”. Also, in the assay on E. coli (Ec), the “E. coli + bicarb MIC” value is “+++ (An MIC value (μg/mL) that is less than 8 μg/mL)”.

As for `CC(Cc1ccc(-n2ccc(NC(=O)N3CCN(C(=O)C(C)(C)N)CC3)nc2=O)cc1)N1CC2CCC(N)CC2C1` (centres unmarked) [Compound 243], the results for the IC50 in assay [1] and in assay [2] were 0.5 to 1 µM and no less than 1 µM, respectively. Moreover, the “Ef + bicarb MIC” value in the assay on E. faecalis (Ef) is listed as “+ (An MIC (μg/mL) value that is 32 μg/mL or greater)”. Moreover, the “Pa MIC + bicarb” value with P. aeruginosa (Pa) was “+ (An MIC (μg/mL) value that is 32 μg/mL or greater)”. For the same compound, the “Sa + bicarb MIC” value in the assay on S. aureus (Sa) was “++ (An MIC value (μg/mL) that is 8 μg/mL or greater and less than 32 μg/mL)”. Further, in the assay with A. baumannn (Ab), the “Ab + bicarb MIC” value is given as “+ (An MIC (μg/mL) value that is 32 μg/mL or greater)”. Besides, the “E. coli + bicarb MIC” value in the assay with E. coli (Ec) is “+++ (An MIC value (μg/mL) that is less than 8 μg/mL)”.

For `CCC(Cc1ccc(-n2ccc(NC(=O)N3CCN(C(=O)C(C)(C)N)CC3)nc2=O)cc1)N1CC2CCC(N)CC2C1` (centres unmarked) [Compound 244], the IC50 in assay [1] is 0.5 to 1 µM; in assay [2], no less than 1 µM. Also, in the assay on E. faecalis (Ef), the “Ef + bicarb MIC” value was “++ (An MIC value (μg/mL) that is 8 μg/mL or greater and less than 32 μg/mL)”. For the same compound, the “Pa MIC + bicarb” value in the assay on P. aeruginosa (Pa) is given as “+ (An MIC (μg/mL) value that is 32 μg/mL or greater)”. Further, the “Sa + bicarb MIC” value with S. aureus (Sa) is recorded as “+++ (An MIC value (μg/mL) that is less than 8 μg/mL)”. In the assay on A. baumannn (Ab), the “Ab + bicarb MIC” value was “+ (An MIC (μg/mL) value that is 32 μg/mL or greater)”. Further, the “E. coli + bicarb MIC” value in the assay on E. coli (Ec) is “+++ (An MIC value (μg/mL) that is less than 8 μg/mL)”.

For `CCC(Cc1ccc(-n2ccc(NC(=O)N3CCN(C(=O)C(C)(C)N)CC3)nc2=O)cc1)N1CC2CCC(N)CC2C1` (centres unmarked) [Compound 245], the IC50 is 0.5 to 1 µM in assay [1] and no less than 1 µM in assay [2]. Besides, the “Ef + bicarb MIC” value with E. faecalis (Ef) is recorded as “+ (An MIC (μg/mL) value that is 32 μg/mL or greater)”. The “Pa MIC + bicarb” value with P. aeruginosa (Pa) was “+ (An MIC (μg/mL) value that is 32 μg/mL or greater)”. Also, the “Sa + bicarb MIC” value in the assay on S. aureus (Sa) was “++ (An MIC value (μg/mL) that is 8 μg/mL or greater and less than 32 μg/mL)”. In the assay on A. baumannn (Ab), the “Ab + bicarb MIC” value is recorded as “+ (An MIC (μg/mL) value that is 32 μg/mL or greater)”. Besides, the “E. coli + bicarb MIC” value in the assay with E. coli (Ec) is given as “+++ (An MIC value (μg/mL) that is less than 8 μg/mL)”.

On to `CC(C)(N)C(=O)N1C[C@H]2CN(C(=O)Nc3ccn(-c4ccc(CN5C[C@@H]6[C@@H](N)[C@@H]6C5)cc4)c(=O)n3)C[C@H]2C1` [Compound 246], for which the IC50 in assay [1] and in assay [2] was no less than 1 µM in each case. The MIC in the assay with E. faecalis (Ef), with P. aeruginosa (Pa), with S. aureus (Sa), with A. baumannn (Ab) and in the assay on E. coli (Ec) was greater than 32 µg/mL throughout.

On to `NC[C@@H]1[C@H]2CN(C(=O)Nc3ccn(-c4ccc(CN5C[C@@H]6[C@@H](N)[C@@H]6C5)cc4)c(=O)n3)C[C@@H]12` [Compound 247], for which the IC50 in assay [1] and in assay [2] was no less than 1 µM in each case. In addition, the MIC in the assay with E. faecalis (Ef), with P. aeruginosa (Pa), in the assay on S. aureus (Sa), with A. baumannn (Ab) and with E. coli (Ec) was greater than 32 µg/mL each time.

As for `NCC1CCN(C(=O)Nc2ccn(-c3ccc(CN4C[C@@H]5[C@@H](N)[C@@H]5C4)cc3)c(=O)n2)CC1` [Compound 248], the IC50 in assay [1] and in assay [2] was no less than 1 µM each time. Besides, the MIC in the assay with E. faecalis (Ef), in the assay on P. aeruginosa (Pa), in the assay with S. aureus (Sa), with A. baumannn (Ab) and with E. coli (Ec) was greater than 32 µg/mL each time.

With `N[C@@H]1[C@H]2CN(Cc3ccc(-n4ccc(NC(=O)N5C[C@@H]6[C@@H](N)[C@@H]6C5)nc4=O)cc3)C[C@@H]12` [Compound 249], the IC50 in assay [1] and in assay [2] was no less than 1 µM each time. Moreover, the MIC with E. faecalis (Ef) is greater than 32 µg/mL; in the assay with P. aeruginosa (Pa), greater than 32 µg/mL; in the assay on S. aureus (Sa) it was greater than 32 µg/mL; in the assay on A. baumannn (Ab), greater than 32 µg/mL; with E. coli (Ec) it was 8 to 32 µg/mL.

In the case of `NCCC1CCN(C(=O)Nc2ccn(-c3ccc(CN4C[C@@H]5[C@@H](N)[C@@H]5C4)cc3)c(=O)n2)CC1` [Compound 250], the IC50 in assay [1] and in assay [2] was no less than 1 µM in each case. Moreover, the MIC in the assay with E. faecalis (Ef), with P. aeruginosa (Pa), in the assay on S. aureus (Sa), in the assay with A. baumannn (Ab) and in the assay on E. coli (Ec) was greater than 32 µg/mL throughout.

`NC[C@@H]1CCN(C(=O)Nc2ccn(-c3ccc(CN4C[C@@H]5[C@@H](N)[C@@H]5C4)cc3)c(=O)n2)C1` [Compound 251]: the IC50 in assay [1] and in assay [2] was no less than 1 µM throughout. Moreover, the minimum inhibitory concentration (MIC) with E. faecalis (Ef), with P. aeruginosa (Pa), with S. aureus (Sa), with A. baumannn (Ab) and in the assay with E. coli (Ec) was greater than 32 µg/mL throughout.

Regarding `NCC1CC2(CCN(C(=O)Nc3ccn(-c4ccc(CN5C[C@@H]6[C@@H](N)[C@@H]6C5)cc4)c(=O)n3)CC2)C1` [Compound 252], the IC50 is 0.5 to 1 µM in assay [1] and no less than 1 µM in assay [2]. For the same compound, the MIC is greater than 32 µg/mL with E. faecalis (Ef); greater than 32 µg/mL with P. aeruginosa (Pa); less than 8 µg/mL in the assay on S. aureus (Sa); greater than 32 µg/mL in the assay with A. baumannn (Ab); less than 8 µg/mL with E. coli (Ec).

On to `NC[C@H]1CCN(C(=O)Nc2ccn(-c3ccc(CN4C[C@@H]5[C@@H](N)[C@@H]5C4)cc3)c(=O)n2)C1` [Compound 253], for which the IC50 in assay [1] and in assay [2] was no less than 1 µM throughout. Moreover, the MIC in the assay on E. faecalis (Ef), with P. aeruginosa (Pa), with S. aureus (Sa), in the assay on A. baumannn (Ab) and with E. coli (Ec) was greater than 32 µg/mL each time.

Turning to `NCC1CN(C(=O)Nc2ccn(-c3ccc(CN4C[C@@H]5[C@@H](N)[C@@H]5C4)cc3)c(=O)n2)C1` [Compound 254], the values for the IC50 in assay [1] and in assay [2] were 0.5 to 1 µM and no less than 1 µM, respectively. In addition, the minimal inhibitory concentration (MIC) with E. faecalis (Ef) was greater than 32 µg/mL; with P. aeruginosa (Pa), greater than 32 µg/mL; in the assay with S. aureus (Sa), greater than 32 µg/mL; in the assay on A. baumannn (Ab), greater than 32 µg/mL; with E. coli (Ec) it was 8 to 32 µg/mL.

Regarding `NCCC1CN(C(=O)Nc2ccn(-c3ccc(CN4C[C@@H]5[C@@H](N)[C@@H]5C4)cc3)c(=O)n2)C1` [Compound 255], the IC50 is 0.5 to 1 µM in assay [1] and no less than 1 µM in assay [2]. The MIC was greater than 32 µg/mL in the assay with E. faecalis (Ef); greater than 32 µg/mL in the assay with P. aeruginosa (Pa); greater than 32 µg/mL in the assay on S. aureus (Sa); greater than 32 µg/mL in the assay on A. baumannn (Ab); 8 to 32 µg/mL in the assay on E. coli (Ec).

By MIC is commonly meant the least concentration at which growth counts as inhibited.
